The values that follow are results of earlier work, collected in patent US20230073516A1, “INTRAORAL FAST-DISINTEGRATING FORMULATION CONTAINING HEMP OIL EXTRACT OR HEMP POWDER EXTRACT AS RAW MATERIAL OF FORMULATION” (CTC SCIENCE INC., priority 2019, published 2023).

For this data set the following is noted: absorbed while passing through the gastrointestinal tract.

Molecules are shown by their SMILES.

Take `C=C(C)[C@@H]1CCC(C)=C[C@H]1c1c(O)cc(CCCCC)cc1O` [cannabidiol]: the Bioavailability of cannabidiol is listed as 13-19%.
